Results taken from patent US20200155521A1, “PHARMACEUTICAL COMBINATION FOR TREATMENT OF CANCER” (ArQule, Inc., priority 2018, published 2020).

How the values were obtained:
[1] = system: HCC1954 breast cancer cells; test: HCC1954 breast cancer xenograft in BALB/c nude mice; assay type: in vivo, mouse; conditions: Compound 3 at 25 mg/kg, paclitaxel at 15 mg/kg; after 3-week treatment
Method: Female BALB/c nude mice were inoculated with 5×10^6 HCC1954 cells suspended in 0.2 mL PBS+Matrigel mixed with 1:1 volume ratio subcutaneously under anesthetized by 1-5% isoflurane. […] Body weight were measured every three days and were expressed as mean (FIG. 13). The data analysis endpoint for this study was Day 21.

[2] = system: relative phospho protein and protein levels in xenograft tumor tissues; test: Reverse phase protein array (RPPA) of xenograft tumor tissues; conditions: normalized for protein loading, linear values; for ER relative protein level / pS6(S240/S244) relative protein level: Vehicle 1.03; for pS6(S235/S236) relative protein level: Vehicle 1.07; for pNDRG1(T346) relative protein level: Vehicle 1.24; for pCDK1(T14) relative protein level: Vehicle 1.40; for p90RSK(T573) relative protein level: Vehicle 1.48; for PLK1 relative protein level: Vehicle 1.55; for MCT4 relative protein level: Vehicle 1.86; for TFRC relative protein level: Vehicle 2.27; for pAkt (S473) relative protein level: Vehicle 3.42
[3] = system: ER+ patient-derived tumor cells with AKTE17K mutation; test: ER+ patient-derived breast tumor xenograft with AKT1-E17K mutation in athymic nude mice; conditions: Compound 3 at 25 mg/kg, fulvestrant at 2.5 mg/kg, palbociclib at 50 mg/kg
[4] = system: T47D breast cancer cells; test: Cell titer-Glo assay in T47D cells, combination with Ribociclib; assay type: cell-based; conditions: Compound 3 0 nM
Method: (§1) The effect of combined treatment of Compound 3 with CDK4/6 inhibitor, Ribociclib, in vitro was assessed. 2,000 cells/well for MCF-7 and 5000 cells/well for T47D were in cultured in 100 μL of the appropriate media in opaque 96-well plate. On day two appropriate concentration of test articles were added in duplicate, two plates per cell line. Cells were incubated at 37° C. at 5% CO2 for five days. At the conclusion of the five-day culture period, Cell titer-Glo was added according to the manufacturer's protocol and read on a luminescent plate reader to assess relative cell number and viability (Table 8-A, 8-B, 8-C, and 8-D). The combination index was calculated using Compusyn software (www.combosyn.com) (Table 8-E).

[5] = system: MCF-7 breast cancer cells; test: Cell titer-Glo assay in MCF-7 cells, combination with Ribociclib; assay type: cell-based; conditions: Compound 3 0 nM
Method: as §1

| SMILES | ER relative protein level [2] | pS6(S240/S244) relative protein level [2] | pS6(S235/S236) relative protein level [2] | pNDRG1(T346) relative protein level [2] | pCDK1(T14) relative protein level [2] | p90RSK(T573) relative protein level [2] | PLK1 relative protein level [2] | MCT4 relative protein level [2] | TFRC relative protein level [2] | pAkt (S473) relative protein level [2] | tumor growth inhibition (TGI) [3] | further results |
| --- | --- | --- | --- | --- | --- | --- | --- | --- | --- | --- | --- | --- |
| CC(=O)O[C@H]1C(=O)[C@@]2(C)[C@H]([C@H](OC(=O)c3ccccc3)[C@]3(O)C[C@H](OC(=O)[C@H](O)[C@@H](NC(=O)c4ccccc4)c4ccccc4)C(C)=C1C3(C)C)[C@]1(OC(C)=O)CO[C@@H]1C[C@@H]2O [paclitaxel, Paclitaxel, reference compound] | – | – | – | – | – | – | – | – | – | – | – | TGI [1]: 44% |
| CC(=O)c1c(C)c2cnc(Nc3ccc(N4CCNCC4)cn3)nc2n(C2CCCC2)c1=O [Palbociclib] | 1.17 | 1.95 | 2.10 | 1.05 | 1.12 | 1.01 | 1.09 | 1.34 | 1.70 | 4.00 | 38% | – |
| CN(C)C(=O)c1cc2cnc(Nc3ccc(N4CCNCC4)cn3)nc2n1C1CCCC1 [Ribociclib, reference compound] | – | – | – | – | – | – | – | – | – | – | – | Cell Growth Inhibition (%) ([4]; Ribociclib 0.1235 μM): 5.0%; Cell Growth Inhibition (%) ([4]; Ribociclib 0.3704 μM): 12.0%; Cell Growth Inhibition (%) ([4]; Ribociclib 1.111 μM): 11.2%; Cell Growth Inhibition (%) ([4]; Ribociclib 3.333 μM): 24.1%; Cell Growth Inhibition (%) ([4]; Ribociclib 10 μM): 25.8%; Cell Growth Inhibition (%) ([5]; Ribociclib 0.1235 μM): 22.9%; Cell Growth Inhibition (%) ([5]; Ribociclib 0.3704 μM): 21.7%; Cell Growth Inhibition (%) ([5]; Ribociclib 1.111 μM): 20.8%; Cell Growth Inhibition (%) ([5]; Ribociclib 3.333 μM): 35.7%; Cell Growth Inhibition (%) ([5]; Ribociclib 10 μM): 60.1% |
| C[C@]12CC[C@@H]3c4ccc(O)cc4C[C@@H](CCCCCCCCC[S+]([O-])CCCC(F)(F)C(F)(F)F)[C@H]3[C@@H]1CC[C@@H]2O (stereo partly drawn) [Fulvestrant] | 0.72 | 1.61 | 1.61 | 1.68 | 1.30 | 1.70 | 1.78 | 1.00 | 1.12 | 4.94 | 68% | – |
